Source: US20080171716A1, “NUCLEIC ACID MODULATION OF TOLL-LIKE RECEPTOR-MEDIATED IMMUNE STIMULATION” (Protiva Biotherapeutics, Inc., priority 2006, published 2008)

Target: T1, TLR9 (Mus musculus, UniProt Q9EQU3)
T1 construct: endogenous in cells; host or cells: Flt3L-derived dendritic cells cultured from bone marrow of female Balb/C mice
T1 sequence (Q9EQU3 26-1032): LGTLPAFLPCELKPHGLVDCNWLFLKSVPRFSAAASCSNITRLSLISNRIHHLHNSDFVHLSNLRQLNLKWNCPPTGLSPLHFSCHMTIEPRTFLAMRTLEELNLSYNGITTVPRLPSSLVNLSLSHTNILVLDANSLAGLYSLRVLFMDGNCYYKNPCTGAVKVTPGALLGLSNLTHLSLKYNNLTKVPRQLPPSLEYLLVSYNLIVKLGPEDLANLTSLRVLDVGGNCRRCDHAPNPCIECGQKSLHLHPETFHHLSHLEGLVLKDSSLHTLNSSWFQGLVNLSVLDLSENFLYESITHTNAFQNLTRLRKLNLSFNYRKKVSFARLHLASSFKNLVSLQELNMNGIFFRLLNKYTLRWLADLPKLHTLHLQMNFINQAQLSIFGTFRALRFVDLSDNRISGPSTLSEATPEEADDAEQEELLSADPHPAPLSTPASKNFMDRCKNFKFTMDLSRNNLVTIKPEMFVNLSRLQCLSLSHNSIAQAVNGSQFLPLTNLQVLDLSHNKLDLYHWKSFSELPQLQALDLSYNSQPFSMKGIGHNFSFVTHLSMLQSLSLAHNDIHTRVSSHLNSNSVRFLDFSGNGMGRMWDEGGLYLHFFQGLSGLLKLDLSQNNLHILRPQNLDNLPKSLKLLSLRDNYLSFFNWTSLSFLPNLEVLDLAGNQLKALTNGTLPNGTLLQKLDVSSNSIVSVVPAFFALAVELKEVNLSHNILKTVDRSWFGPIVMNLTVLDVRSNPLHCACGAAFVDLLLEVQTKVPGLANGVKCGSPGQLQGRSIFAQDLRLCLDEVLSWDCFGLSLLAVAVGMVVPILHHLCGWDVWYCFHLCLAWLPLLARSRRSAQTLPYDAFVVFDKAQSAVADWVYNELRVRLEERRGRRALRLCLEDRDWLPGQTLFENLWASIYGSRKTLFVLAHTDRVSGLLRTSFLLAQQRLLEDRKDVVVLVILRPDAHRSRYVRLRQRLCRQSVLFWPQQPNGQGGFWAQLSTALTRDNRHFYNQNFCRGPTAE
Test: CpG ODN (TLR9 agonist)-induced IFN-α in murine Flt3L-derived dendritic cells
Type: cell-based
Conditions: murine Flt3L DC; 1:1 molar ratio
Experimental: Lipid Encapsulation of RNA and ODN. RNA or ODN were encapsulated in liposomes by a process of spontaneous vesicle formation as described in Judge et al., supra, and Jeffs et al., Pharm. Res., 22:362-372 (2005).
Flt3L-derived dendritic cells (DC) were generated as described in Gilliet et al., J. Exp. Med., 195:953-958 (2002), using 100 ng/ml murine Flt3-ligand (Peprotech) supplemented media. Femurs and tibiae of female Balb/C mice were isolated and rinsed in sterile PBS. The ends of bones were cut and marrow harvested in complete media (RPMI 1640, 10% heat inactivated FBS, 1% penicillin/streptomycin, 2 mM L-glutamine, 1 mM sodium pyruvate, 25 mM HEPES, 50 μM 2-mercaptoethanol). Bone marrow cells were passed through a 70 μm strainer and centrifuged at 1000 rpm for 7 min. and resuspended in complete media supplemented with 100 ng/ml murine Flt3L to 2×10^6 cells/ml. 2 ml of cells were seeded in 6-well plates and 1 ml fresh media was added every two to three days. On day 9 of culture, non-adherent cells were washed in complete media and plated into 96-well plates at concentrations ranging from 0.5 to 2.5×10^5 cells/well.
Loxoribine (InvivoGen; San Diego, Calif.), polyIC (Sigma-Aldrich; St. Louis, Mo.), and formulated nucleic acids were diluted in PBS and added to either human PBMC or Flt3L DC cultures. Cells were incubated 24 h at 37° C. before supernatants were assayed for cytokines by ELISA.
Cytokine ELISA. All cytokines were quantified using sandwich ELISA kits according to the manufacturer's instructions. These were mouse and human IFN-α (PBL Biomedical; Piscataway, N.J.) and IL-6 (eBioscience; San Diego, Calif.).

In the case of “polyUmod21: 2′OMe-uridine homopolymer of 21 nucleotides in length (UUUUUUUUUUUUUUUUUUUUU; all 2'-O-methyl, backbone not given here)”, the “level of IFN-α induction by Type B ODN (1826) when co-formulated” value is reported as “no inhibitory effect” and the “level of IFN-α induction by Type C ODN (M362) when co-formulated” value is reported as “no inhibitory effect”.
